pIC50: −log10 of the molar value.
Target: T1, TXA2 receptor (Homo sapiens, UniProt P21731)
T1 construct: human platelet membrane fraction was prepared; from tissue; host or cells: human platelets (membrane fraction from the blood of normal adult donors)
T1 sequence (P21731 1-343): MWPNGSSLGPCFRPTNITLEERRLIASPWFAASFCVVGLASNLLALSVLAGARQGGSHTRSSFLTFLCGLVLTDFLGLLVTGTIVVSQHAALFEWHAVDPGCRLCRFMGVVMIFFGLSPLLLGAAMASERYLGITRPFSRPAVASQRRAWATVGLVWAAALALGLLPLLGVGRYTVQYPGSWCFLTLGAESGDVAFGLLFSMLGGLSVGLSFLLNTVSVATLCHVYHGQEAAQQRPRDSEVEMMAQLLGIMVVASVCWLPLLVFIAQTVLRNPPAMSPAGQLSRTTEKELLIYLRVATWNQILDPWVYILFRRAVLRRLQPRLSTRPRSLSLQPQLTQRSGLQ
Test: TXA2 receptor binding assay
Settings: human platelet membrane fraction; displacement of 2 nM [3H](+)-S-145 sodium salt; 90 min at room temperature; read-out: inhibition activity IC50
Description: Blood which was obtained using a plastic syringe contained 3.8% sodium citrate from the vein of normal human (adult male and female) was put into a plastic tube, and after lightly mixing with tumbling, centrifuged at 1800 rpm, for 10 min. at a room temperature to obtain platelet rich plasma (PRP) in supernatant. The PRP was further centrifuged at 2,300 rpm, for 22 min. at a room temperature to obtain platelets. The obtained platelets was homogenized using homogenizer (Ultra-Turrax), and then, centrifuged at 20,000 rpm, for 10 min. at 4° C. to obtain a fraction of platelet membrane. The membrane fraction was subjected to a quantitative assay for a protein to be adjusted to 2 mg/ml, and kept at −80° C. in a freezer until a binding assay is conducted. […]
To 0.2 ml of a binding reaction mixture (50 mM Tris/HCl, pH 7.4, 10 mM MgCl2), human platelet membrane fraction (0.05 mg) and 26.4 Ci/mmol of 2 nM [^3H](+)-(5Z)-7-[3-endo-[(phenylsulfonyl)amino]bicyclo[2.2.1]hepto-2-exo-yl] heptenic acid sodium salt (Japanese Patent Publication No. H5-79060, referred hereinafter to (+)-S-145 sodium salt) were added, and reacted for 90 min at room temperature. After reaction, the reaction was filtered by using grass fiber filter, washed several times with cold saline, and then, radioactivity remaining on the filter was assayed. […]

`O=C(O)CCC/C=C\C[C@H]1[C@@H]2CC[C@@H](C2)[C@@H]1NC(=O)c1csc2ccc(O)cc12` [Compound 1] was tested, and the pIC50 was 6.82.

Compound `COC(=O)CCC/C=C\C[C@H]1[C@@H]2CC[C@@H](C2)[C@@H]1NC(=O)c1cccc2ccsc12` [Compound 2] has a pIC50 of 5.42.

Source: patent publication US20030194748A1, “Method for labeling with tritium” (priority 2000, published 2003)
